# Assay results published in patent US7445897B2, “Sequence variants of multi-drug resistance genes, MDR1 and MRP1, and methods for assessment of drug penetration and disposition” (University of Washington, priority 2004, dated 2008).
# Like-named read-outs stand apart in the source and are kept apart here.
# Assays:
# MDR1 (wild type) = test: Cytotoxic drug sensitivity assay (MTS); type: cell-based, human; settings: human, HEK293 cells recombinantly expressing MDR1 wild type, HEK MDR1 WT; 72hours, MTS; read-out: EC50 (Mean ± S.D.)
# MDR1 (G1199T variant) = test: Cytotoxic drug sensitivity assay (MTS); type: cell-based, human; settings: human, HEK293 cells recombinantly expressing MDR1 G1199T; HEK MDR1 G1199T; 72hours, MTS; read-out: EC50 (Mean ± S.D.)
# [1] = system: HEK negative control cells; test: Cytotoxic drug sensitivity assay (MTS); type: cell-based, human; settings: Homo sapiens, 72 h, HEK Control; 72hours, MTS; read-out: EC50 (Mean ± S.D.)
# rMRP1 [2] = biological target: T1, rMRP1 (Rattus norvegicus, UniProt Q8CG09); test: Calcein efflux in rMRP1-expressing MDCK-II cells; type: cell-based; settings: indomethacin 100 μM, MK571 10 μM
# T1 construct: expressed in transfected cells
# T1 sequence (Q8CG09 whole entry): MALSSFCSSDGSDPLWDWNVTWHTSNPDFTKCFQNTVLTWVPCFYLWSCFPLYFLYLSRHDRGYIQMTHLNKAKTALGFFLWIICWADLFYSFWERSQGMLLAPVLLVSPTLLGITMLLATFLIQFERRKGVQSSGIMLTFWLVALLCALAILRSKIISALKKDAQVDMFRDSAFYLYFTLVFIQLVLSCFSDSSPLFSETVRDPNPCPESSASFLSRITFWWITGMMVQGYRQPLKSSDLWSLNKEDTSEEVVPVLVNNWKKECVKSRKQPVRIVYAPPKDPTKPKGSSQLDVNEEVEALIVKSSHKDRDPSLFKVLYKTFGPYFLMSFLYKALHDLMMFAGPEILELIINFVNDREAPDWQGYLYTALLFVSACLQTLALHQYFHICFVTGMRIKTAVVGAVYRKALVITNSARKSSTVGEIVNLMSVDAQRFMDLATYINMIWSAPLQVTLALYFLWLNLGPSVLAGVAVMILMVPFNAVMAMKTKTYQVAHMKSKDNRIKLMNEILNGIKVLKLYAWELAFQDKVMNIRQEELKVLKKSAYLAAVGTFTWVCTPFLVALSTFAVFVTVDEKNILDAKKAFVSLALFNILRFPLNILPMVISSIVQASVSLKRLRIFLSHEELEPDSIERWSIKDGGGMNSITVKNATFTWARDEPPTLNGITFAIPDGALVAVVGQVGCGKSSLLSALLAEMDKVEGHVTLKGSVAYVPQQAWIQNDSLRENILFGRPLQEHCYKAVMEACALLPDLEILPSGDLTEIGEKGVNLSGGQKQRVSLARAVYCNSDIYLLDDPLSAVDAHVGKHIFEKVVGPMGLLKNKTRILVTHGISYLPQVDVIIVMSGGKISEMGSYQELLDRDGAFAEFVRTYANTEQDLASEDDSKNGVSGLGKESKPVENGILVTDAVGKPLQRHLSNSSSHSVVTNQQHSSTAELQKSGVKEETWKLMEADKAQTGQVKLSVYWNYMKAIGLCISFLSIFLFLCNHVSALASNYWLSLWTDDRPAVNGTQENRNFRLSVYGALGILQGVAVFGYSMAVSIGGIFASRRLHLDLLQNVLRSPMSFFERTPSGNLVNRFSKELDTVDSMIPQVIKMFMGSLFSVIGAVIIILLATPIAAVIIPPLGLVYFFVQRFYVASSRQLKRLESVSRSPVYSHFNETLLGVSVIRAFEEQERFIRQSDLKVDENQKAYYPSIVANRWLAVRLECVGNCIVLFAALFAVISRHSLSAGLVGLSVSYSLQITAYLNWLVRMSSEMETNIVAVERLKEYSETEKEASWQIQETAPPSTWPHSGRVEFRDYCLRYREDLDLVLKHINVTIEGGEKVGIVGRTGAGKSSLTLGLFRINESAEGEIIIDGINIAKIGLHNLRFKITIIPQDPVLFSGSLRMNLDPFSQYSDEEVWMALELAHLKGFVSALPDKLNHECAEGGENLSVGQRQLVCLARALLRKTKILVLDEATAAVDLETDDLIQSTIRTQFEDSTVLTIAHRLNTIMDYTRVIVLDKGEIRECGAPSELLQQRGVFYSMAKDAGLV
# Excerpt: These recombinant cells were derived from MDCK-II epithelial cells that form tight junctions, suitable for transepithelial transport assessment. Several stable clones of epithelial cells that consistently express rMRP1 were constructed, which could be differentiated to form a polarized monolayer for transepithelial flux studies. […] The cells that consistently over-expressed rMRP1 were expanded from a single cell clone and analyzed for MRP1 function.
# [3] = system: P-gp (MDR11199, G1199A) in recombinant LLC-PK1 cells; settings: human, LLC-PK1
# LLC-PK1 control cells [4] = test: Intracellular uptake of HIV protease inhibitors; type: in vitro ADME, porcine
# [5] = van Heeswijk et al. 2001; cited from earlier work
# LLC-PK1 control cells [6] = system: LLC-PK1 control cells
# MDR1 (G1199A variant) = test: in vitro; settings: human
# LLC-PK1 control cells [7] = test: Cytotoxic drug sensitivity assay (3H-thymidine); type: cell-based, porcine; settings: Sus scrofa, 72 h, 3 days with drug
# Procedure: (§1) On the second day of the incubation, 1 μCi of ^3H-thymidine (specific activity: 81.1 Ci/mmole) was added to each well and incubated overnight. Cells were harvested on day 3 with a cell harvester.
# (§2) Dose response analysis was performed for doxorubicin, vincristine and vinblastine. […] TRANSEPITHELIAL TRANSPORT
# [8] = system: recombinant MDR1wt LLC-PK1 cells; test: Cytotoxic drug sensitivity assay (3H-thymidine); type: cell-based, porcine
# Procedure: as §1, §2
# [9] = system: recombinant MDR11199 LLC-PK1 cells; test: Cytotoxic drug sensitivity assay (3H-thymidine); type: cell-based, porcine
# Procedure: as §1, §2
# rMRP1 [10] = biological target: T1, rMRP1; test: Transepithelial transport in differentiated rMRP1-MDCK cells; type: in vitro ADME
# Excerpt: These stable recombinant cells can be used to evaluate drug candidates that are either MRP1 substrates or inhibitors, as well as further elucidate MRP1 structure and function.
# [11] = biological target: P-gp (MDR11199, G1199A) in recombinant LLC-PK1 cells (Homo sapiens, UniProt P08183, S400N)
# Chain of P-gp (MDR11199, G1199A) in recombinant LLC-PK1 cells (Homo sapiens, UniProt P08183, S400N) (P08183 whole entry S400N): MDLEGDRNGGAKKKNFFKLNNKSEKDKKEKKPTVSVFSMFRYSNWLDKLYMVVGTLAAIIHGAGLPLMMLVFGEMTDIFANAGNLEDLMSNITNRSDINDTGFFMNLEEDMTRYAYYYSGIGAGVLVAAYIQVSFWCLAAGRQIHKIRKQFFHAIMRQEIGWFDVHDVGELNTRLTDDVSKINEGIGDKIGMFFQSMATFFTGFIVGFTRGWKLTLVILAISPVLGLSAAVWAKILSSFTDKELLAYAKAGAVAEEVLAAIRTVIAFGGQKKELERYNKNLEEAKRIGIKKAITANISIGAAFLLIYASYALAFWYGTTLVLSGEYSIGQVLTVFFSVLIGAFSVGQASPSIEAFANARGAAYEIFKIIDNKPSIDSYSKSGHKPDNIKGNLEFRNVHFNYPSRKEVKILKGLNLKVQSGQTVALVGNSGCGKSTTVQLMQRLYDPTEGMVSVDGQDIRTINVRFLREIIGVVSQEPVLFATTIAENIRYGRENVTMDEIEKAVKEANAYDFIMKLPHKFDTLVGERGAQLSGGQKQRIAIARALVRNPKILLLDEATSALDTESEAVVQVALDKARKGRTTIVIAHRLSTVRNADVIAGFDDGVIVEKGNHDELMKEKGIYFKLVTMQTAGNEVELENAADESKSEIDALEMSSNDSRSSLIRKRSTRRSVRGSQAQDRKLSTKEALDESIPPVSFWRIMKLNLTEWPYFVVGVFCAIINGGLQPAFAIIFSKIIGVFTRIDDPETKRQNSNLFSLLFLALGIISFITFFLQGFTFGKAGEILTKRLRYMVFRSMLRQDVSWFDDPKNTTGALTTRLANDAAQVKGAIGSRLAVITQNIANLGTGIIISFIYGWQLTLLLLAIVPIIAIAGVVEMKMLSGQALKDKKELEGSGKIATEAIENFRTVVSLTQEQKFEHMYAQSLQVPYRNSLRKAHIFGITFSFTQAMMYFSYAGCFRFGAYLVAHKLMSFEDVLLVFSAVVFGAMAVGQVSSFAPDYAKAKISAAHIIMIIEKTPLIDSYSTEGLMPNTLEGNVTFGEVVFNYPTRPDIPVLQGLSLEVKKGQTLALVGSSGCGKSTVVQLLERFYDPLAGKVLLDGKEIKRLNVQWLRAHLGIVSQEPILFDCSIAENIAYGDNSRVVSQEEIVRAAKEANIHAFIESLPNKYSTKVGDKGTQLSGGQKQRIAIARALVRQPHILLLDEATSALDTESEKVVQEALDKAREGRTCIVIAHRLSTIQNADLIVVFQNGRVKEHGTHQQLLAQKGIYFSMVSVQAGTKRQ
# [12] = system: Pgp (MDR1 and 1199 variants) in recombinant HEK cells; test: Doxorubicin intracellular accumulation in recombinant HEK cells; type: cell-based, human; settings: recombinant HEK cells expressing MDR1, any variant
# Procedure: Cells were washed with ice-cold PBS, trypsinized, and lysed in 0.5% deoxycholic acid. To precipitate the proteins tricholoracetic acid was added to 5% and the cell lysates were incubated for 30 min at 4° C. and centrifuged at 20,000 g.
# [13] = healthy human subjects; Greiner et al. 1999; cited from earlier work
# [14] = protease inhibitor + GF120918 (1 μM)
smiles,measurement,setting,value
CC(=O)O[C@H]1C(=O)[C@@]2(C)[C@H]([C@H](OC(=O)c3ccccc3)[C@]3(O)C[C@H](OC(=O)[C@H](O)[C@@H](NC(=O)c4ccccc4)c4ccccc4)C(C)=C1C3(C)C)[C@]1(OC(C)=O)CO[C@@H]1C[C@@H]2O [paclitaxel],EC50 at 72 h,MDR1 (wild type),0.128 ± 0.05 µM
same,EC50 at 72 h,MDR1 (G1199T variant),0.0427 ± 0.0127 µM
same,EC50,[1],0.00267 ± 0.00013 µM
COc1ccc2c(c1)c(CC(=O)O)c(C)n2C(=O)c1ccc(Cl)cc1 [indomethacin],effect of MRP1 inhibitor on calcein efflux,rMRP1 [2],suppressed efflux transport of calcein back to the control level
CC(C)c1nc(CN(C)C(=O)N[C@H](C(=O)N[C@@H](Cc2ccccc2)C[C@H](O)[C@H](Cc2ccccc2)NC(=O)OCc2cncs2)C(C)C)cs1 [ritonavir],decrease in apical-to-basolateral flux in MDR11199 cells compared to MDR1wt cells,[3],2.3 fold
same,increase in basolateral-to-apical efflux in MDR11199 cells compared to MDR1wt,[3],1.2 fold
same,Km,LLC-PK1 control cells [4],0.25 µM
same,oral bioavailability in systemic circulation,[5],60-80%
same,"Rate of transfer dQ/dt ± s.d., A → B",LLC-PK1 control cells [6]; [14],6.46 ± 0.69
same,"Rate of transfer dQ/dt ± s.d., B → A",LLC-PK1 control cells [6]; [14],9.60 ± 0.75
same,"Rate of transfer dQ/dt ± s.d., A → B","LLC-PK1 control cells [6]; protease inhibitor alone, 5 μM",6.46 ± 0.94
same,"Rate of transfer dQ/dt ± s.d., B → A","LLC-PK1 control cells [6]; protease inhibitor alone, 5 μM",11.0 ± 0.5
CC[C@]1(O)C[C@@H]2CN(CCc3c([nH]c4ccccc34)[C@@](C(=O)OC)(c3cc4c(cc3OC)N(C)[C@H]3[C@@](O)(C(=O)OC)[C@H](OC(C)=O)[C@]5(CC)C=CCN6CC[C@]43[C@@H]65)C2)C1 [vinblastine],EC50 at 72 h,MDR1 (wild type),0.127 ± 0.013 µM
same,EC50,MDR1 (G1199A variant),0.243 ± 0.0151 µM
same,EC50,LLC-PK1 control cells [7],0.00066 ± 0.00022 µM
same,EC50 fold-change from control,[8]; MDR1wt vs LLC-PK1 control,2.14 fold
same,EC50,"[8]; Sus scrofa, 72 h, MDR1wt LLC-PK1 cells, 3 days with drug",0.00141 ± 0.00051 µM
same,EC50 fold-change from control,[9]; MDR11199 vs LLC-PK1 control,23.8 fold
same,resistance of MDR11199 cells relative to MDR1wt cells,"[9]; MDR11199 vs MDR1wt, from EC50",about 11 fold
same,EC50,"[9]; Sus scrofa, 72 h, MDR11199 LLC-PK1 cells, 3 days with drug",0.0157 µM
same,resistance of MDR11199 cells compared with MDR1wt cells,"[9]; cytotoxicity studies, LLC-PK1",more resistant
same,directional transepithelial transport,rMRP1 [10],exhibit directional transepithelial transport
same,EC50 at 72 h,MDR1 (G1199T variant),0.0547 ± 0.00799 µM
same,EC50,[1],0.00145 ± 0.00023 µM
"COc1cc2c(cc1OC)CN(CCc1ccc(NC(=O)c3cccc4c(=O)c5cccc(OC)c5[nH]c34)cc1)CC2 [GF120918, N-(4-[2-(1,2,3,4-tetrahydro-6,7-dimethoxy-2-isoquinolinyl)ethyl]-phenyl)-9,10-dihydro-5-methoxy-9-oxo-4-acridine carboxamide]",effect of inhibitor on P-gp efflux of protease inhibitors,[11],effectively blocked P-gp activity
same,effect of inhibitor on reduction in intracellular doxorubicin concentration,[12],can be reversed
CC(C)(C)NC(=O)[C@@H]1CN(Cc2cccnc2)CCN1C[C@@H](O)C[C@@H](Cc1ccccc1)C(=O)N[C@H]1c2ccccc2C[C@H]1O [indinavir],decrease in apical-to-basolateral flux in MDR11199 cells compared to MDR1wt cells,[3],1.9 fold
same,oral bioavailability in systemic circulation,[5],70%
same,"Rate of transfer dQ/dt ± s.d., A → B",LLC-PK1 control cells [6]; [14],4.26 ± 0.25
same,"Rate of transfer dQ/dt ± s.d., B → A",LLC-PK1 control cells [6]; [14],5.99 ± 0.11
same,"Rate of transfer dQ/dt ± s.d., A → B","LLC-PK1 control cells [6]; protease inhibitor alone, 5 μM",7.17 ± 0.03
same,"Rate of transfer dQ/dt ± s.d., B → A","LLC-PK1 control cells [6]; protease inhibitor alone, 5 μM",6.69 ± 0.21
C[C@H]1O[C@@H](O[C@H]2[C@@H](O)C[C@H](O[C@H]3[C@@H](O)C[C@H](O[C@H]4CC[C@@]5(C)[C@H](CC[C@@H]6[C@@H]5C[C@@H](O)[C@]5(C)[C@@H](C7=CC(=O)OC7)CC[C@]65O)C4)O[C@@H]3C)O[C@@H]2C)C[C@H](O)[C@@H]1O [digoxin],range in the oral bioavailability from inter-individual variation in intestinal MDR1 expression,[13],7 fold
